#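 GI50 marks 50% less growth. TGI marks complete inhibition of growth.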
# Key:
# Test in all cases: NCI anticancer screen, dose series, 384-well format
# 786-0 renal = system: 786-0 renal
# A498 renal = system: A498 renal
# A549 NSCLC = system: A549 NSCLC
# ACHN renal = system: ACHN renal
# BT-549 breast = system: BT-549 breast
# CAKI-1 renal = system: CAKI-1 renal
# CCRF-CEM leukemia = system: CCRF-CEM leukemia
# COLO 205 colon = system: COLO 205 colon
# DU-145 prostate = system: DU-145 prostate
# EKVX NSCLC = system: EKVX NSCLC
# HCC-2998 colon = system: HCC-2998 colon
# HCT-116 colon = system: HCT-116 colon
# HCT-15 colon = system: HCT-15 colon
# HL-60(TB) leukemia = system: HL-60(TB) leukemia
# HOP-62 NSCLC = system: HOP-62 NSCLC
# HOP-92 NSCLC = system: HOP-92 NSCLC
# HS 578T breast = system: HS 578T breast
# HT29 colon = system: HT29 colon
# IGROV1 ovarian = system: IGROV1 ovarian
# KM12 colon = system: KM12 colon
# LOX IMVI melanoma = system: LOX IMVI melanoma
# M14 melanoma = system: M14 melanoma
# MALME-3M melanoma = system: MALME-3M melanoma
# MDA-MB-435 melanoma = system: MDA-MB-435 melanoma
# MDA-MB-468 breast = system: MDA-MB-468 breast
# MOLT-4 leukemia = system: MOLT-4 leukemia
# NCI-H226 lung = system: NCI-H226 lung
# NCI-H23 lung = system: NCI-H23 lung
# NCI-H322M lung = system: NCI-H322M lung
# NCI-H460 NSCLC = system: NCI-H460 NSCLC
# NCI-H522 lung = system: NCI-H522 lung
# NCI/ADR-RES ovarian = system: NCI/ADR-RES ovarian
# OVCAR-3 ovarian = system: OVCAR-3 ovarian
# OVCAR-4 ovarian = system: OVCAR-4 ovarian
# OVCAR-5 ovarian = system: OVCAR-5 ovarian
# OVCAR-8 ovarian = system: OVCAR-8 ovarian
# PC-3 prostate = system: PC-3 prostate
# RPMI-8226 leukemia = system: RPMI-8226 leukemia
# RXF 393 renal = system: RXF 393 renal
# SF-268 CNS = system: SF-268 CNS
# SF-295 CNS = system: SF-295 CNS
# SF-539 CNS = system: SF-539 CNS
# SK-MEL-28 melanoma = system: SK-MEL-28 melanoma
# SK-MEL-5 melanoma = system: SK-MEL-5 melanoma
# SK-OV-3 ovarian = system: SK-OV-3 ovarian
# SN12C renal = system: SN12C renal
# SNB-19 CNS = system: SNB-19 CNS
# SNB-75 CNS = system: SNB-75 CNS
# SW-620 colon = system: SW-620 colon
# T-47D breast = system: T-47D breast
# TK-10 renal = system: TK-10 renal
# U251 glioblastoma = system: U251 glioblastoma
# UACC-257 melanoma = system: UACC-257 melanoma
# UACC-62 melanoma = system: UACC-62 melanoma
# UO-31 renal = system: UO-31 renal
compound,measurement,setting,value
Cc1cc(Cl)cc(OCCn2cc(F)cn2)c1-c1nc(N)nc2c1CN(C(=O)NCC(C)(F)F)C2,GI50,786-0 renal,59.3 nM
same,TGI,786-0 renal,5810 nM
same,GI50,A498 renal,149 nM
same,TGI,A498 renal,> 100000 nM
same,GI50,A549 NSCLC,45.6 nM
same,TGI,A549 NSCLC,> 100000 nM
same,GI50,ACHN renal,389 nM
same,TGI,ACHN renal,> 100000 nM
same,GI50,BT-549 breast,36.3 nM
same,TGI,BT-549 breast,769 nM
same,GI50,CAKI-1 renal,163 nM
same,TGI,CAKI-1 renal,> 100000 nM
same,GI50,CCRF-CEM leukemia,29.1 nM
same,TGI,CCRF-CEM leukemia,94.1 nM
same,GI50,COLO 205 colon,30.6 nM
same,TGI,COLO 205 colon,136 nM
same,GI50,DU-145 prostate,40.5 nM
same,TGI,DU-145 prostate,1750 nM
same,GI50,EKVX NSCLC,90.2 nM
same,TGI,EKVX NSCLC,31100 nM
same,GI50,HCC-2998 colon,21.5 nM
same,TGI,HCC-2998 colon,71.4 nM
same,GI50,HCT-116 colon,68.5 nM
same,TGI,HCT-116 colon,18200 nM
same,GI50,HCT-15 colon,339 nM
same,TGI,HCT-15 colon,> 100000 nM
same,GI50,HL-60(TB) leukemia,32.5 nM
same,TGI,HL-60(TB) leukemia,71.2 nM
same,GI50,HOP-62 NSCLC,65.1 nM
same,TGI,HOP-62 NSCLC,> 100000 nM
same,GI50,HOP-92 NSCLC,73.3 nM
same,TGI,HOP-92 NSCLC,279 nM
same,GI50,HS 578T breast,46.8 nM
same,TGI,HS 578T breast,302 nM
same,GI50,HT29 colon,35 nM
same,TGI,HT29 colon,16800 nM
same,GI50,IGROV1 ovarian,40.2 nM
same,TGI,IGROV1 ovarian,443 nM
same,GI50,KM12 colon,37.3 nM
same,TGI,KM12 colon,802 nM
same,GI50,LOX IMVI melanoma,35.7 nM
same,TGI,LOX IMVI melanoma,129 nM
same,GI50,M14 melanoma,40.8 nM
same,TGI,M14 melanoma,> 100000 nM
same,GI50,MALME-3M melanoma,30.7 nM
same,TGI,MALME-3M melanoma,85.2 nM
same,GI50,MDA-MB-435 melanoma,83.1 nM
same,TGI,MDA-MB-435 melanoma,> 100000 nM
same,GI50,MDA-MB-468 breast,34 nM
same,TGI,MDA-MB-468 breast,76 nM
same,GI50,MOLT-4 leukemia,17.5 nM
same,TGI,MOLT-4 leukemia,34.7 nM
same,GI50,NCI-H226 lung,174 nM
same,TGI,NCI-H226 lung,842 nM
same,GI50,NCI-H23 lung,32.1 nM
same,TGI,NCI-H23 lung,95.4 nM
same,GI50,NCI-H322M lung,136 nM
same,TGI,NCI-H322M lung,> 100000 nM
same,GI50,NCI-H460 NSCLC,34.2 nM
same,TGI,NCI-H460 NSCLC,106 nM
same,GI50,NCI-H522 lung,23.9 nM
same,TGI,NCI-H522 lung,45.7 nM
same,GI50,NCI/ADR-RES ovarian,5110 nM
same,TGI,NCI/ADR-RES ovarian,63000 nM
same,GI50,OVCAR-3 ovarian,41.6 nM
same,TGI,OVCAR-3 ovarian,939 nM
same,GI50,OVCAR-4 ovarian,> 100000 nM
same,TGI,OVCAR-4 ovarian,> 100000 nM
same,GI50,OVCAR-5 ovarian,115 nM
same,TGI,OVCAR-5 ovarian,> 100000 nM
same,GI50,OVCAR-8 ovarian,43.1 nM
same,TGI,OVCAR-8 ovarian,181 nM
same,GI50,PC-3 prostate,86.7 nM
same,TGI,PC-3 prostate,533 nM
same,GI50,RPMI-8226 leukemia,57 nM
same,TGI,RPMI-8226 leukemia,305 nM
same,GI50,RXF 393 renal,41.3 nM
same,TGI,RXF 393 renal,842 nM
same,GI50,SF-268 CNS,24 nM
same,TGI,SF-268 CNS,63.2 nM
same,GI50,SF-295 CNS,58.9 nM
same,TGI,SF-295 CNS,230 nM
same,GI50,SF-539 CNS,26.1 nM
same,TGI,SF-539 CNS,62.8 nM
same,GI50,SK-MEL-28 melanoma,71.5 nM
same,TGI,SK-MEL-28 melanoma,> 100000 nM
same,GI50,SK-MEL-5 melanoma,47.2 nM
same,TGI,SK-MEL-5 melanoma,> 100000 nM
same,GI50,SK-OV-3 ovarian,121 nM
same,TGI,SK-OV-3 ovarian,> 100000 nM
same,GI50,SN12C renal,51.6 nM
same,TGI,SN12C renal,316 nM
same,GI50,SNB-19 CNS,122 nM
same,TGI,SNB-19 CNS,24400 nM
same,GI50,SNB-75 CNS,152 nM
same,TGI,SNB-75 CNS,664 nM
same,GI50,SW-620 colon,38.5 nM
same,TGI,SW-620 colon,268 nM
same,GI50,T-47D breast,43.8 nM
same,TGI,T-47D breast,307 nM
same,GI50,TK-10 renal,275 nM
same,TGI,TK-10 renal,12700 nM
same,GI50,U251 glioblastoma,37.9 nM
same,TGI,U251 glioblastoma,130 nM
same,GI50,UACC-257 melanoma,394 nM
same,TGI,UACC-257 melanoma,> 100000 nM
same,GI50,UACC-62 melanoma,54.3 nM
same,TGI,UACC-62 melanoma,300 nM
same,GI50,UO-31 renal,394 nM
same,TGI,UO-31 renal,56100 nM

# — PubChem BioAssay (NCI)
